The text below walks through data of ChEMBL document CHEMBL4219086, “Development of benzoxazole deoxybenzoin oxime and acyloxylamine derivatives targeting innate immune sensors and xanthine oxidase for treatment of gout” (Bioorg Med Chem, 2018).

In assay [1] the target is Xanthine dehydrogenase/oxidase (Homo sapiens, UniProt P47989). The assay is described as follows: Inhibition of Xanthine oxidase (unknown origin) using xanthine as substrate preincubated for 1 to 5 mins followed by substrate addition.
Chain of Xanthine dehydrogenase/oxidase (P47989 whole entry, the tested form may be a part): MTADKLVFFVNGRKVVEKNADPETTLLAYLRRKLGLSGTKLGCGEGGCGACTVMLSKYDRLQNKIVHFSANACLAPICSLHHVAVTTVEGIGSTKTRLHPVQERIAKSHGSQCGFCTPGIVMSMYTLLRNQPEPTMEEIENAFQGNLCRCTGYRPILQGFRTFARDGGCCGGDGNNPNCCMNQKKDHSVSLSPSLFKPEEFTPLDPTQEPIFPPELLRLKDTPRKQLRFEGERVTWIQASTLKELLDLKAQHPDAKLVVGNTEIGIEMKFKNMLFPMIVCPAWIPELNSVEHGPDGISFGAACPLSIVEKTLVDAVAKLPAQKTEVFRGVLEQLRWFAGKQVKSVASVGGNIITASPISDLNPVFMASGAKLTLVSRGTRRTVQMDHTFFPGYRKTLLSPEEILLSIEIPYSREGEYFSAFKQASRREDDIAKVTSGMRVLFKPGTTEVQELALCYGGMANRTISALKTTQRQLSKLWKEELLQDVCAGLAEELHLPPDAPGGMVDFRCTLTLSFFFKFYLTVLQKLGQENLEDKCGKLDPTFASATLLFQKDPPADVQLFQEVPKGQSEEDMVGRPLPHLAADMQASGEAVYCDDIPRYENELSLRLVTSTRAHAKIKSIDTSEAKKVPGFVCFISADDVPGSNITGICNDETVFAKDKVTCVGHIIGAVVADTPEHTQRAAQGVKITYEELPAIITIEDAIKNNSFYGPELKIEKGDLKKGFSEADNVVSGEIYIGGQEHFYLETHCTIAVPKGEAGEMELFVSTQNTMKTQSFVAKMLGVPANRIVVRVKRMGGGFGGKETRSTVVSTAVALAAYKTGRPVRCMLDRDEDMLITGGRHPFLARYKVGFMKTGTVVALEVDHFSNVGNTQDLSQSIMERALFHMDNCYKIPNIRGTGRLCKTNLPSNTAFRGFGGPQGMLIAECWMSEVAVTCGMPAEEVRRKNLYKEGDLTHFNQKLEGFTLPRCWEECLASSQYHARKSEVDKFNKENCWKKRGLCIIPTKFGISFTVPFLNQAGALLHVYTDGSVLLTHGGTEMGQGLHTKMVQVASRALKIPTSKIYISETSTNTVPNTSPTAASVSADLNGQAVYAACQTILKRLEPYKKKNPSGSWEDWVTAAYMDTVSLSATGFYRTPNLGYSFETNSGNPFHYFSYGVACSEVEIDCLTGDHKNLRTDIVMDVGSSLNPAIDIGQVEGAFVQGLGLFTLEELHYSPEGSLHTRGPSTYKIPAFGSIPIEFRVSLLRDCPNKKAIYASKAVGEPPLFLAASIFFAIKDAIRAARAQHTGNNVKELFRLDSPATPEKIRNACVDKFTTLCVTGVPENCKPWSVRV
In assay [2] the target is NACHT, LRR and PYD domains-containing protein 3 (Homo sapiens, UniProt Q96P20). The assay is described as follows: Inhibition of NLRP3 inflammasome in human THP1 cells assessed as reduction in MSU-induced IL-1beta production preincubated for 1 hr followed by MSU stimulation measured after 6 hrs. In kind it is cell-based.
Chain of NACHT, LRR and PYD domains-containing protein 3 (Q96P20 whole entry, the tested form may be a part): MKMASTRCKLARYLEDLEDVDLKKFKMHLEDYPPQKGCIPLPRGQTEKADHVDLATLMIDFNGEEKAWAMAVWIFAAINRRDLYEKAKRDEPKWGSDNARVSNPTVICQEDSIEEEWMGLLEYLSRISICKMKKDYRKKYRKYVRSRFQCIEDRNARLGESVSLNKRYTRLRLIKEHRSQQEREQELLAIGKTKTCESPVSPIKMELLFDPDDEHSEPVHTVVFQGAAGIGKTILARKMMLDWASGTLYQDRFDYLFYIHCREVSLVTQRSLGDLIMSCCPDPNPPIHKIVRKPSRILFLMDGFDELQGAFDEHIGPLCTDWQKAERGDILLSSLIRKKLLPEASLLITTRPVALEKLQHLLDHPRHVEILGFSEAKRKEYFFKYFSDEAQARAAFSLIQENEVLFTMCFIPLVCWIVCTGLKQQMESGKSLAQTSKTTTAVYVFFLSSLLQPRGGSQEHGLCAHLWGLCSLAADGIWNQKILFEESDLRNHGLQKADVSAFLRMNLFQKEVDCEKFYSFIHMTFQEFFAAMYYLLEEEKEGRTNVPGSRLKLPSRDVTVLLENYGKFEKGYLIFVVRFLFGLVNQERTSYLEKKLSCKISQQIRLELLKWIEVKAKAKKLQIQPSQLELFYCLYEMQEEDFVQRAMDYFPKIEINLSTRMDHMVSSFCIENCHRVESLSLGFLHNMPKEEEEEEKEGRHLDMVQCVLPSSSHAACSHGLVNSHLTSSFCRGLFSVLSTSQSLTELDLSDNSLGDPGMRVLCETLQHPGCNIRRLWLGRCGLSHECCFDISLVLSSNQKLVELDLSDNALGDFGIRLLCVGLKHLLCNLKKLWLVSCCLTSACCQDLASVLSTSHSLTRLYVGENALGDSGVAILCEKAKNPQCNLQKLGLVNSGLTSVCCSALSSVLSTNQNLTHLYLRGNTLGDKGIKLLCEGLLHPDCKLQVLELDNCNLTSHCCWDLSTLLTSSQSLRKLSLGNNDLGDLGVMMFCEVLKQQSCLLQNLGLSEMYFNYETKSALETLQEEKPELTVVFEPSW
In assay [3] the test system is Mus musculus. Nature of the assay: Anti-hyperuricemic effect in Kunming mouse assessed as inhibition of potassium oxonate-induced serum uric acid level administered po 1 hr post potassium oxonate addition measured after 1 hr by phosphotungstic acid method. In kind it is functional, organism-based.
Assay [4] deals with Mus musculus. The assay is described as follows: In vivo inhibition of XOD activity in liver of Kunming mouse model of potassium oxonate-induced hyperuricemia administered po 1 hr post potassium oxonate addition measured after 1 hr. Type of assay: functional, organism-based.
Assay [5] concerns Mus musculus. Nature of the assay: Hypouricemic effect in Kunming mouse assessed as inhibition of hepatic XOD activity at 5 mg/kg, po measured after 1 hr relative to control. Type of assay: organism-based.
Assay [6] deals with Rattus norvegicus. Nature of the assay: Antiarthritic activity in MSU-induced acute gouty arthritis Sprague-Dawley rat model assessed as reduction in ankle swelling by measuring perimeter of ankle at 2.5 mg/kg, po qd pretreated via gavage for 5 days followed by MSU treatment at 1 hr post last dose measured immediately (reference value: 2.64 +/- 0.81 cm). In kind it is functional.

Assay [7] has as its system Rattus norvegicus. Nature of the assay: Antiarthritic activity in MSU-induced acute gouty arthritis Sprague-Dawley rat model assessed as reduction in ankle swelling by measuring perimeter of ankle at 5 mg/kg, po qd pretreated via gavage for 5 days followed by MSU treatment at 1 hr post last dose measured immediately (reference value: 2.64 +/- 0.81 cm). In kind it is functional.

In assay [8] the test system is Rattus norvegicus. The assay is described as follows: Antiarthritic activity in MSU-induced acute gouty arthritis Sprague-Dawley rat model assessed as reduction in ankle swelling by measuring perimeter of ankle at 2.5 mg/kg, po qd pretreated via gavage for 5 days followed by MSU treatment at 1 hr post last dose measured after 2 hrs (reference value: 2.82 +/- 0.75 cm). Type of assay: functional.

For assay [9], the system named is Rattus norvegicus. The assay is described as follows: Antiarthritic activity in MSU-induced acute gouty arthritis Sprague-Dawley rat model assessed as reduction in ankle swelling by measuring perimeter of ankle at 5 mg/kg, po qd pretreated via gavage for 5 days followed by MSU treatment at 1 hr post last dose measured after 4 hrs (reference value: 3.18 +/- 0.64 cm). In kind it is functional.

Assay [10] deals with Rattus norvegicus. The assay is described as follows: Antiarthritic activity in MSU-induced acute gouty arthritis Sprague-Dawley rat model assessed as reduction in ankle swelling by measuring perimeter of ankle at 2.5 mg/kg, po qd pretreated via gavage for 5 days followed by MSU treatment at 1 hr post last dose measured after 8 hrs (reference value: 3.27 +/- 0.56 cm). In kind it is functional.

Assay [11] relates to Rattus norvegicus. The assay is described as follows: Antiarthritic activity in MSU-induced acute gouty arthritis Sprague-Dawley rat model assessed as reduction in ankle swelling by measuring perimeter of ankle at 10 mg/kg, po qd pretreated via gavage for 5 days followed by MSU treatment at 1 hr post last dose measured after 8 hrs (reference value: 3.27 +/- 0.56 cm). Type of assay: functional.

The subject of assay [12] is Rattus norvegicus. Nature of the assay: Antiarthritic activity in MSU-induced acute gouty arthritis Sprague-Dawley rat model assessed as reduction in ankle swelling by measuring perimeter of ankle at 2.5 mg/kg, po qd pretreated via gavage for 5 days followed by MSU treatment at 1 hr post last dose measured after 12 hrs (reference value: 3.51 +/- 0.52 cm). Type of assay: functional.

For assay [13], the system named is Rattus norvegicus. Nature of the assay: Antiarthritic activity in MSU-induced acute gouty arthritis Sprague-Dawley rat model assessed as reduction in ankle swelling by measuring perimeter of ankle at 5 mg/kg, po qd pretreated via gavage for 5 days followed by MSU treatment at 1 hr post last dose measured after 12 hrs (reference value: 3.51 +/- 0.52 cm). In kind it is functional.

The test system of assay [14] is Rattus norvegicus. The assay is described as follows: Inhibition of MSU-induced IL-1beta level in serum of acute gouty arthritis Sprague-Dawley rat model at 2.5 to 10 mg/kg, po qd pretreated via gavage for 5 days followed by MSU treatment at 1 hr post last dose measured up to 24 hrs by ELISA. Type of assay: functional, organism-based. (In general: ELISA stands for enzyme-linked immunosorbent assay.)

For assay [15], the system named is Rattus norvegicus. The assay is described as follows: Inhibition of MSU-induced TNFalpha level in serum of acute gouty arthritis Sprague-Dawley rat model at 2.5 to 10 mg/kg, po qd pretreated via gavage for 5 days followed by MSU treatment at 1 hr post last dose measured up to 24 hrs by ELISA. Type of assay: functional, organism-based.
Assay [16] has as its system Rattus norvegicus. Nature of the assay: Inhibition of MSU-induced IL-1beta level in synovial homogenate of acute gouty arthritis Sprague-Dawley rat model at 2.5 to 10 mg/kg, po qd pretreated via gavage for 5 days followed by MSU treatment at 1 hr post last dose measured up to 24 hrs by ELISA. In kind it is functional, organism-based.
Assay [17] relates to Rattus norvegicus. The assay is described as follows: Inhibition of MSU-induced TNFalpha level in synovial homogenate of acute gouty arthritis Sprague-Dawley rat model at 2.5 to 10 mg/kg, po qd pretreated via gavage for 5 days followed by MSU treatment at 1 hr post last dose measured up to 24 hrs by ELISA. Type of assay: functional, organism-based.
For assay [18], the system named is Rattus norvegicus. The assay is described as follows: Inhibition of MSU-induced NLRP3 protein level in synovial homogenate of acute gouty arthritis Sprague-Dawley rat model at 2.5 to 10 mg/kg, po qd pretreated via gavage for 5 days followed by MSU treatment at 1 hr post last dose measured up to 24 hrs by Western blot method. In kind it is functional, organism-based.

SMILES strings stand for the structures. The source made the active and inactive calls. No cut-off for these calls is given here.

Regarding `COc1ccc(C/C(=N\O)c2nc3ccc(OC)cc3o2)cc1`, the results for the IC50 in assay [1] and in [2] were 3700 nM and 1220 nM, respectively. Moreover, the inhibition result in [3] and in assay [4] was “Dose-dependent effect” each time. For the same molecule, in [5], the inhibition at 5 mg/kg is 6.8%. The Activity in [6] is 2.65 cm; in [7] it was 2.7 cm; in [8], 2.78 cm; in [9] it was 2.84 cm; in assay [10], 2.96 cm; in [11], 2.72 cm. Moreover, the Activity in assay [12] is on record as 3.14 cm; in assay [13] it was 2.99 cm. Further, the inhibition result in assay [14], in [15], in [16], in [17] and in assay [18] was “Active” each time.

Broadly, the IC50 is the midpoint of a concentration-inhibition curve. A word on the inhibition: it is the share of the control response that was lost under treatment.
